Test results published in publication PMC2275798 (The Journal of biological chemistry, 2007).

Experiments:
[1] = molecular target: T1, LSECtin carbohydrate-recognition domain (CRD) (Homo sapiens, UniProt Q6UXB4); type: binding
T1 sequence (Q6UXB4 160-293): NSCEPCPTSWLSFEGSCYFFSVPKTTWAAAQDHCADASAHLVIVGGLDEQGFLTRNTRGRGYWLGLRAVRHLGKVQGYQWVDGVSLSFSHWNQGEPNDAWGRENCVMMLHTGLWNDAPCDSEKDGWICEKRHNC

[2] = molecular target: T1, LSECtin carbohydrate-recognition domain (CRD); type: binding; remark: listed apart in the source
[3] = molecular target: T2, Ebola virus surface glycoprotein GP1 (Fc fusion) GP1 (Zaire ebolavirus, UniProt Q05320)
T2 chain: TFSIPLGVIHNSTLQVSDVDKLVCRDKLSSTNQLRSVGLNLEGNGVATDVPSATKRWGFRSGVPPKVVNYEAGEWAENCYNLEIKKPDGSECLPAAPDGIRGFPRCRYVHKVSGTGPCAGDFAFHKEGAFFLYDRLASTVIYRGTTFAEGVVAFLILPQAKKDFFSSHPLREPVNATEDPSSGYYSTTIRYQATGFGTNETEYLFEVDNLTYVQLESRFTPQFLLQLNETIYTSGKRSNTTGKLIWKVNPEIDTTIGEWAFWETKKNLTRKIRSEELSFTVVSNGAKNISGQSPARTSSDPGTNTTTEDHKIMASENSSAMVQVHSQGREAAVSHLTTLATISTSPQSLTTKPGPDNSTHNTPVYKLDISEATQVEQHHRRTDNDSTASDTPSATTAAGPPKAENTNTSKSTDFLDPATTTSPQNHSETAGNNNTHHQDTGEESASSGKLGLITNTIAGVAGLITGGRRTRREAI

In the case of `OC[C@H]1O[C@H](OC[C@H]2OC(O)[C@@H](O)[C@@H](O[C@H]3O[C@H](CO)[C@@H](O)[C@H](O)[C@@H]3O)[C@@H]2O)[C@@H](O)[C@@H](O)[C@@H]1O` (stereo partly drawn) [branched trimannose oligosaccharide], the KI [1] is reported as “The branched trimannose oligosaccharide, which forms the core of the complex glycans”.

For `CC(=O)N[C@H]1[C@H](O[C@@H]2C(O)O[C@H](CO)[C@@H](O)[C@@H]2O)O[C@H](CO)[C@@H](O)[C@@H]1O` (stereo partly drawn) [GlcNAcβ1-2Man], the Ki [2] was 3.5 µM.

B1: LSECtin CRD (protein)
chain: FEGSCYFFSVPKTTWAAAQDHCADASAHLVIVGGLDEQGFLTRNTRGRGYWLGLRAVRHLGKVQGYQWVDGVSLSFSHWNQGEPNDAWGRENCVMMLHTGLWNDAPCDSEKDGWIC
Work on B1 yielded a Kd [3] of 0.0037 µM.
